Results as given in ChEMBL document CHEMBL1201862, “PubChem BioAssay data set” (2004).
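Five compound concentrations were applied to cells in 96-well plates for 48 hours; endpoints were derived by simple linear interpolation of the resulting dose-response curve. GI50: concentration for 50% inhibition of growth.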 Activity calls are given as the source filed them. Cut-off read from the data, not from the text of the source: active = GI50 up to about 1.1 µM and inactive = higher.

Assays:
Experiment in all cases: NCI anticancer screen, dose series, 48 h
[1] = system: HOP-18
[2] = system: RPMI-8226
[3] = system: 786-0
[4] = system: SF-268
[5] = system: EKVX
[6] = system: MOLT-4
[7] = system: SF-539
[8] = system: M14
[9] = system: OVCAR-5
[10] = system: RXF 393
[11] = system: CAKI-1
[12] = system: DMS-273
[13] = system: HL-60
[14] = system: OVCAR-8
[15] = system: CCRF-CEM
[16] = system: SR
[17] = system: SF-295
[18] = system: SK-MEL-2
[19] = system: U-251
[20] = system: HT-29
[21] = system: Malme-3M
[22] = system: NCI-H226
[23] = system: UACC-257
[24] = system: HCC 2998
[25] = system: SNB-75
[26] = system: HCT-116
[27] = system: SK-MEL-28
[28] = system: LOX IMVI
[29] = system: NCI-H460
[30] = system: A498
[31] = system: COLO 205
[32] = system: ACHN
[33] = system: TK-10
[34] = system: KM12
[35] = system: NCI-H23
[36] = system: HOP-92
[37] = system: RXF 631
[38] = system: SNB-19
[39] = system: OVCAR-4
[40] = system: NCI-H522
[41] = system: DMS-114
[42] = system: A549
[43] = system: KM-20L2
[44] = system: IGROV-1
[45] = system: SW-620
[46] = system: HOP-62
[47] = system: K562
[48] = system: SNB-78
[49] = system: SK-MEL-5
[50] = system: HCT-15
[51] = system: M19-MEL
[52] = system: SK-OV-3
[53] = system: LXFL 529
[54] = system: SN12C
[55] = system: UO-31
[56] = system: OVCAR-3
[57] = system: UACC-62
[58] = system: DLD-1

With `CC1=C(/C(C)=N/NS(=O)(=O)c2ccc(C)cc2)Sc2ccccc2N1` the GI50 [1] was 72.1 µM (inactive), the GI50 [2] was 56.8 µM (inactive) and the GI50 [3] was > 100 µM (inactive). For the same compound, the GI50 [4] was > 100 µM (inactive), the GI50 [5] was 68.7 µM (inactive) and the GI50 [6] was 52.7 µM (inactive). The GI50 [7] was > 100 µM (inactive), the GI50 [8] was > 100 µM (inactive) and the GI50 [9] was > 100 µM (inactive). The GI50 [10] was > 100 µM (inactive), the GI50 [11] was > 100 µM (inactive) and the GI50 [12] was 78.3 µM (inactive). For the same compound, the GI50 [13] was 39.4 µM (inactive), the GI50 [14] was > 100 µM (inactive) and the GI50 [15] was 32.9 µM (inactive). For the same compound, the GI50 [16] was 59.7 µM (inactive), the GI50 [17] was 50.5 µM (inactive) and the GI50 [18] was 94.2 µM (inactive). The GI50 [19] was 47.9 µM (inactive), the GI50 [20] was 98.6 µM (inactive) and the GI50 [21] was 77.3 µM (inactive). The GI50 [22] was > 100 µM (inactive), the GI50 [23] was 65.5 µM (inactive) and the GI50 [24] was > 100 µM (inactive). For the same compound, the GI50 [25] was 75.7 µM (inactive), the GI50 [26] was > 100 µM (inactive) and the GI50 [27] was > 100 µM (inactive). For the same compound, the GI50 [28] was 70.8 µM (inactive), the GI50 [29] was > 100 µM (inactive) and the GI50 [30] was > 100 µM (inactive). The GI50 [31] was 48.1 µM (inactive), the GI50 [32] was > 100 µM (inactive) and the GI50 [33] was > 100 µM (inactive). The GI50 [34] was > 100 µM (inactive), the GI50 [35] was 89.3 µM (inactive) and the GI50 [36] was 81.8 µM (inactive). The GI50 [37] was > 100 µM (inactive), the GI50 [38] was > 100 µM (inactive) and the GI50 [39] was > 100 µM (inactive). The GI50 [40] was 46.7 µM (inactive), the GI50 [41] was 43.4 µM (inactive) and the GI50 [42] was > 100 µM (inactive). The GI50 [43] was > 100 µM (inactive), the GI50 [44] was > 100 µM (inactive) and the GI50 [45] was > 100 µM (inactive). The GI50 [46] was > 100 µM (inactive), the GI50 [47] was 37.7 µM (inactive) and the GI50 [48] was > 100 µM (inactive). The GI50 [49] was 47.5 µM (inactive), the GI50 [50] was greater than 100 µM and the GI50 [51] was 43.7 µM (inactive). For the same compound, the GI50 [52] was > 100 µM (inactive), the GI50 [53] was 79.6 µM (inactive) and the GI50 [54] was > 100 µM (inactive). For the same compound, the GI50 [55] was 57 µM (inactive), the GI50 [56] was 58.2 µM (inactive) and the GI50 [57] was 32.9 µM (inactive).
`N#Cc1c(-c2ccccc2)cc(-c2ccc(N)cc2)[nH]c1=O` was tested, and the GI50 [1] was > 100 µM (inactive), the GI50 [2] was > 100 µM (inactive) and the GI50 [3] was > 100 µM (inactive). For the same compound, the GI50 [4] was > 100 µM (inactive), the GI50 [5] was > 100 µM (inactive) and the GI50 [6] was > 100 µM (inactive). The GI50 [7] was > 100 µM (inactive), the GI50 [8] was > 100 µM (inactive) and the GI50 [9] was > 100 µM (inactive). For the same compound, the GI50 [10] was > 100 µM (inactive), the GI50 [12] was > 100 µM (inactive) and the GI50 [13] was > 100 µM (inactive). For the same compound, the GI50 [14] was > 100 µM (inactive), the GI50 [15] was > 100 µM (inactive) and the GI50 [16] was > 100 µM (inactive). For the same compound, the GI50 [17] was > 100 µM (inactive), the GI50 [19] was > 100 µM (inactive) and the GI50 [20] was > 100 µM (inactive). For the same compound, the GI50 [21] was > 100 µM (inactive), the GI50 [22] was > 100 µM (inactive) and the GI50 [23] was > 100 µM (inactive). The GI50 [24] was > 100 µM (inactive), the GI50 [25] was 25.2 µM (inactive) and the GI50 [26] was > 100 µM (inactive). The GI50 [27] was > 100 µM (inactive), the GI50 [28] was > 100 µM (inactive) and the GI50 [58] was > 100 µM (inactive). The GI50 [29] was > 100 µM (inactive), the GI50 [30] was > 100 µM (inactive) and the GI50 [31] was > 100 µM (inactive). The GI50 [32] was > 100 µM (inactive), the GI50 [33] was > 100 µM (inactive) and the GI50 [34] was > 100 µM (inactive). For the same compound, the GI50 [35] was > 100 µM (inactive), the GI50 [36] was > 100 µM (inactive) and the GI50 [37] was > 100 µM (inactive). The GI50 [38] was > 100 µM (inactive), the GI50 [39] was > 100 µM (inactive) and the GI50 [40] was > 100 µM (inactive). For the same compound, the GI50 [41] was > 100 µM (inactive), the GI50 [42] was > 100 µM (inactive) and the GI50 [43] was > 100 µM (inactive). The GI50 [44] was > 100 µM (inactive), the GI50 [45] was > 100 µM (inactive) and the GI50 [46] was > 100 µM (inactive). The GI50 [47] was > 100 µM (inactive), the GI50 [48] was > 100 µM (inactive) and the GI50 [49] was > 100 µM (inactive). The GI50 [50] was greater than 100 µM, the GI50 [51] was > 100 µM (inactive) and the GI50 [52] was > 100 µM (inactive). The GI50 [53] was > 100 µM (inactive), the GI50 [54] was > 100 µM (inactive) and the GI50 [55] was > 100 µM (inactive). The GI50 [56] was > 100 µM (inactive) and the GI50 [57] was > 100 µM (inactive).
With `C=CCN1C(=O)C/C(=C2/CCC(=O)N2CC=C)C1=O` the GI50 [1] was > 100 µM (inactive), the GI50 [3] was > 100 µM (inactive) and the GI50 [4] was > 100 µM (inactive). For the same compound, the GI50 [5] was > 100 µM (inactive), the GI50 [6] was > 100 µM (inactive) and the GI50 [7] was > 100 µM (inactive). The GI50 [8] was > 100 µM (inactive), the GI50 [9] was > 100 µM (inactive) and the GI50 [10] was > 100 µM (inactive). For the same compound, the GI50 [11] was > 100 µM (inactive), the GI50 [12] was > 100 µM (inactive) and the GI50 [13] was > 100 µM (inactive). The GI50 [14] was > 100 µM (inactive), the GI50 [15] was > 100 µM (inactive) and the GI50 [16] was > 100 µM (inactive). For the same compound, the GI50 [17] was > 100 µM (inactive), the GI50 [18] was > 100 µM (inactive) and the GI50 [19] was > 100 µM (inactive). The GI50 [20] was > 100 µM (inactive), the GI50 [21] was > 100 µM (inactive) and the GI50 [22] was > 100 µM (inactive). For the same compound, the GI50 [23] was > 100 µM (inactive), the GI50 [24] was > 100 µM (inactive) and the GI50 [25] was > 100 µM (inactive). The GI50 [26] was > 100 µM (inactive), the GI50 [27] was > 100 µM (inactive) and the GI50 [28] was > 100 µM (inactive). The GI50 [58] was > 100 µM (inactive), the GI50 [29] was > 100 µM (inactive) and the GI50 [30] was > 100 µM (inactive). For the same compound, the GI50 [31] was > 100 µM (inactive), the GI50 [32] was > 100 µM (inactive) and the GI50 [33] was > 100 µM (inactive). The GI50 [34] was > 100 µM (inactive), the GI50 [35] was > 100 µM (inactive) and the GI50 [36] was > 100 µM (inactive). For the same compound, the GI50 [37] was > 100 µM (inactive), the GI50 [38] was > 100 µM (inactive) and the GI50 [39] was > 100 µM (inactive). The GI50 [40] was > 100 µM (inactive), the GI50 [41] was > 100 µM (inactive) and the GI50 [42] was > 100 µM (inactive). For the same compound, the GI50 [43] was > 100 µM (inactive), the GI50 [44] was > 100 µM (inactive) and the GI50 [45] was > 100 µM (inactive). The GI50 [46] was 88.7 µM (inactive), the GI50 [47] was > 100 µM (inactive) and the GI50 [48] was > 100 µM (inactive). For the same compound, the GI50 [49] was > 100 µM (inactive), the GI50 [50] was greater than 100 µM and the GI50 [51] was > 100 µM (inactive). For the same compound, the GI50 [52] was > 100 µM (inactive), the GI50 [53] was > 100 µM (inactive) and the GI50 [54] was > 100 µM (inactive). The GI50 [55] was > 100 µM (inactive), the GI50 [56] was > 100 µM (inactive) and the GI50 [57] was > 100 µM (inactive).
With `C/C=C/C=C/c1cc2cc3c(c(O)c2c(=O)[nH]1)C1(CC3)C(=O)c2c(O)c3c(c(O)c2C1=O)C(=O)C(OC)=CC3=O` (centres undefined) the GI50 [1] was 0.615 µM (active), the GI50 [12] was 0.414 µM (active) and the GI50 [58] was 0.552 µM (active). For the same compound, the GI50 [37] was 13.2 µM (inactive), the GI50 [41] was 0.337 µM (active) and the GI50 [43] was 1.08 µM (active). For the same compound, the GI50 [48] was 4.11 µM (inactive), the GI50 [51] was 0.953 µM (active) and the GI50 [53] was 0.44 µM (active).
